Data on 23 compounds can be found in patent US20150157739A1, “Imidazo[2,1]thiazol-3-one derivatives” (Hoffmann-La Roche Inc., priority 2012, published 2015).

SMILES strings stand for the structures.

The target in assay [1] is T1, aggregated recombinant human-microtubule associated protein Tau (Homo sapiens, UniProt P10636).
T1 construct: Recombinant human-microtubule associated protein Tau purified from E. coli is aggregated at a concentration of 5 μM with Arachidonic Acid (100 μM) in Tris 10 mM pH8, 24 h at 37° C
As to the kind of experiment: Thiazin-red R displacement fluorescence assay on aggregated Tau. It is filed as binding. As to conditions: displacement of Thiazin-red R from aggregated Tau; compound 0.3 nM to 10000 nM; 30 min room temperature; Ex 531 nm/Em 595 nm. The procedure: (§1) Assay for Determination of […] for Tau and A-Beta
(§2) Recombinant human-microtubule associated protein Tau purified from E. coli is aggregated at a concentration of 5 μM with Arachidonic Acid (100 μM) in Tris 10 mM pH8, 24 h at 37° C. Synthetic Aβ40 is aggregated at a concentration of 50 μM with Arachidonic Acid (100 μM) in Tris 10 mM pH8, for three days at 37° C., under shaking at 150 rpm.
(§3) A saturation analysis of Thiazin-red R to the aggregated proteins is done to determine the affinity (Kd) of the Thiazin-red R to the aggregated protein.
(§4) Thiazin-red R will be added at the concentration corresponding to the Kd to the respective aggregated protein binding site, to induce a fluorescent signal that can be inhibited by the addition of a displacer compound.
(§5) In parallel, auto fluorescence of the compound is measured together with the aggregated proteins, but without Thiazin-red R. As negative control, ligand and aggregated protein is used and as positive control, Thiazin-red R, reference compound with known activity and aggregated protein is used.
(§6) Assay is performed in Perkin Elmer OptiPlate 384, black, 45 ul assay volume, assay buffer is DPBS no CaCl2 no MgCl2 (GIBCO N. 14020). Tested compounds are diluted in DMSO and 2 μl is added to the assay ([…]). Assay is started by the addition of the aggregated protein (competitive condition). Plates are shortly shacked (1 min with Sterico variomag teleshake) and incubated for 30 min at room temperature. Measurement are done with En:Vision (Perkin Elmer), at Excitation 531 nm/Emission 595 nm.

Assay [2] addresses T2, aggregated synthetic Aβ40 (Homo sapiens, UniProt P05067).
T2 construct: Synthetic Aβ40 is aggregated at a concentration of 50 μM
As to the kind of experiment: Thiazin-red R displacement fluorescence assay on aggregated A-beta. It is filed as binding. As to conditions: displacement of Thiazin-red R from aggregated Aβ40; compound 0.3 nM to 10000 nM; 30 min room temperature; Ex 531 nm/Em 595 nm. The procedure:
as §1, §2, §3, §4, §5, §6

T2 sequence (P05067 672-711 limits assumed): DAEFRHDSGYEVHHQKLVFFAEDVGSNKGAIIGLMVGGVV
T1 sequence (P10636 whole entry): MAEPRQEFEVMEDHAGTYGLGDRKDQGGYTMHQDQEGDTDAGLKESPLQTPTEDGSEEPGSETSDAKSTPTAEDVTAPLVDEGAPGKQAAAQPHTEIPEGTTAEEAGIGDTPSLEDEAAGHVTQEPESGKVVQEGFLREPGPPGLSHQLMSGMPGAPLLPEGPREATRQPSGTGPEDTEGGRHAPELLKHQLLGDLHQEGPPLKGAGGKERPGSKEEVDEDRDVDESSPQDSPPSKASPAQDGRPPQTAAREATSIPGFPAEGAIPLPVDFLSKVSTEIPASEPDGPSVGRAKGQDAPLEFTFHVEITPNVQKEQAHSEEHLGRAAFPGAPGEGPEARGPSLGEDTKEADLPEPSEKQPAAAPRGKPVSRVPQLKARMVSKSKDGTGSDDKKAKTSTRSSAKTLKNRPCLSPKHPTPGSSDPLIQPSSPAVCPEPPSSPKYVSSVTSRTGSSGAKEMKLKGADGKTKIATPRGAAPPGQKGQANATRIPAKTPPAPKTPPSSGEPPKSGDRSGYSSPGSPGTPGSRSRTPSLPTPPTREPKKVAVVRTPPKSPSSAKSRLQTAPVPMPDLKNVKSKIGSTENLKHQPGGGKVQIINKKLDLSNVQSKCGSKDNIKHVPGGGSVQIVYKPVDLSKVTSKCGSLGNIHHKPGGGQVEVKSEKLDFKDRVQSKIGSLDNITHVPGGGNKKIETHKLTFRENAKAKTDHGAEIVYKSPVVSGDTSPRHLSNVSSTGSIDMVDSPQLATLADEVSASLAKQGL

On to `COc1cc(/C=c2\sc3nc(-c4ccc(C(=O)NCCCF)cc4)cn3c2=O)cc(Cl)c1O` (single isomer, unassigned) [Example 133], for which the half-maximal inhibitory concentration (IC50) is 2 nM in assay [1] and 86 nM in assay [2].
On the same counts, the results for `COc1cc(/C=c2\sc3nc(-c4ccncc4)cn3c2=O)cc(OC)c1O` [Example 1, 2-[1-(4-Hydroxy-3,5-dimethoxy-phenyl)-meth-(Z)-ylidene]-6-pyridin-4-yl-imidazo[2,1-b]thiazol-3-one] are 5 nM and 93 nM.
On the same counts, the results for `COc1cc(/C=c2\sc3nc(-c4ccc(Cl)cc4)cn3c2=O)cc(OC)c1O` [Example 2, 6-(4-Chloro-phenyl)-2-[1-(4-hydroxy-3,5-dimethoxy-phenyl)-meth-(Z)-ylidene]-imidazo[2,1-b]thiazol-3-one] are 2 nM and 7 nM.
On the same counts, the results for `COc1cc(/C=c2\sc3nc(-c4ccc(Cl)cc4)cn3c2=O)ccc1O` [Example 3, 6-(4-Chloro-phenyl)-2-[1-(4-hydroxy-3-methoxy-phenyl)-meth-(Z)-ylidene]-imidazo[2,1-b]thiazol-3-one] are 49 nM and 215 nM.
For the compound `COc1cc(/C=c2\sc3nc(-c4ccc(Cl)cc4)cn3c2=O)cc(F)c1O` [Example 4, 6-(4-Chloro-phenyl)-2-[1-(3-fluoro-4-hydroxy-5-methoxy-phenyl)-meth-(Z)-ylidene]-imidazo[2,1-b]thiazol-3-one], the IC50 in assay [1] worked out at 11 nM; in assay [2], 393 nM.
On the same counts, the results for `CCOc1cc(/C=c2\sc3nc(-c4ccc(Cl)cc4)cn3c2=O)ccc1O` [Example 5, 6-(4-Chloro-phenyl)-2-[1-(3-ethoxy-4-hydroxy-phenyl)-meth-(Z)-ylidene]-imidazo[2,1-b]thiazol-3-one] are 178 nM and 1160 nM.
In the case of `COc1cc(/C=c2\sc3nc(-c4ccc(Cl)cc4)cn3c2=O)cc(Cl)c1O` [Example 6, 6-(4-Chloro-phenyl)-2-[1-(3-chloro-4-hydroxy-5-methoxy-phenyl)-meth-(Z)-ylidene]-imidazo[2,1-b]thiazol-3-one], the IC50 in assay [1] turned out to be 2 nM; in assay [2] it was 32 nM.
On the same counts, the results for `COc1cc(/C=c2\sc3nc(-c4ccc(Cl)cc4)cn3c2=O)cc(Br)c1O` [Example 7, 6-(4-Chloro-phenyl)-2-[1-(3-bromo-4-hydroxy-5-methoxy-phenyl)-meth-(Z)-ylidene]-imidazo[2,1-b]thiazol-3-one] are 2 nM and 18 nM.
On the same counts, the results for `COc1cc(/C=c2\sc3nc(-c4ccc(Cl)cc4)cn3c2=O)cc(O)c1O` [Example 8, 6-(4-Chloro-phenyl)-2-[1-(3,4-dihydroxy-5-methoxy-phenyl)-meth-(Z)-ylidene]-imidazo[2,1-b]thiazol-3-one] are 5 nM and 18 nM.
On the same counts, the results for `COc1cc(/C=c2\sc3nc(-c4ccccc4C)cn3c2=O)cc(F)c1O` [Example 9, 2-[1-(3-Fluoro-4-hydroxy-5-methoxy-phenyl)-meth-(Z)-ylidene]-6-o-tolyl-imidazo[2,1-b]thiazol-3-one] are 105 nM and 706 nM.
Turning to `COc1cc(/C=c2\sc3nc(-c4ccccc4C)cn3c2=O)cc(Cl)c1O` [Example 10, 2-[1-(3-Chloro-4-hydroxy-5-methoxy-phenyl)-meth-(Z)-ylidene]-6-o-tolyl-imidazo[2,1-b]thiazol-3-one], the IC50 in assay [1] came to 28 nM; in assay [2], 1220 nM.
As to `COc1cc(/C=c2\sc3nc(-c4ccccc4C)cn3c2=O)ccc1O` [Example 11, 2-[1-(4-hydroxy-3-methoxy-phenyl)-meth-(Z)-ylidene]-6-o-tolyl-imidazo[2,1-b]thiazol-3-one], the concentration for half-maximal inhibition (IC50) in assay [1] was 837 nM; in assay [2], 1280 nM.
The like results for `COc1cc(/C=c2\sc3nc(-c4ccnc(C)c4)cn3c2=O)ccc1O` [Example 12, 2-[1-(4-Hydroxy-3-methoxy-phenyl)-meth-(Z)-ylidene]-6-(2-methyl-pyridin-4-yl)-imidazo[2,1-b]thiazol-3-one] were, in that order, 79 nM and above 10000 nM.
The like results for `COc1cc(/C=c2\sc3nc(-c4cc(C)nc(C)c4)cn3c2=O)ccc1O` [Example 13, 2-[1-(4-Hydroxy-3-methoxy-phenyl)-meth-(Z)-ylidene]-6-(2,6-dimethyl-pyridin-4-yl)-imidazo[2,1-b]thiazol-3-one] were, in that order, 91 nM and above 10000 nM.
Take `COc1cc(/C=c2\sc3nc(-c4cccc(OC(F)(F)F)c4)cn3c2=O)cc(F)c1O` [Example 35, 2-[1-(3-Fluoro-4-hydroxy-5-methoxy-phenyl)-meth-(Z)-ylidene]-6-(3-trifluoromethoxy-phenyl)-imidazo[2,1-b]thiazol-3-one]: the IC50 in assay [1] is 13 nM.
As for `COc1cc(/C=c2\sc3nc(-c4cccc(C#N)c4)cn3c2=O)cc(F)c1O` [Example 38, 3-{2-[1-(3-Fluoro-4-hydroxy-5-methoxy-phenyl)-meth-(Z)-ylidene]-3-oxo-2,3-dihydro-imidazo[2,1-b]thiazol-6-yl}-benzonitrile], the IC50 in assay [2] was above 10000 nM.
Regarding `COc1cc(/C=c2\sc3nc(-c4cccc(C#N)c4)cn3c2=O)cc(OC)c1O` [Example 50, 3-{2-[1-(4-Hydroxy-3,5-dimethoxy-phenyl)-meth-(Z)-ylidene]-3-oxo-2,3-dihydro-imidazo[2,1-b]thiazol-6-yl}-benzonitrile], the concentration for half-maximal inhibition (IC50) in assay [1] was 7 nM.
On the same count and under the same terms, under `COc1ccccc1-c1cn2c(=O)/c(=C/c3cc(Cl)c(O)c(OC)c3)sc2n1` [Example 55, 2-[1-(3-Chloro-4-hydroxy-5-methoxy-phenyl)-meth-(Z)-ylidene]-6-(2-methoxy-phenyl)-imidazo[2,1-b]thiazol-3-one] stands 103 nM.
Still for that read-out and setting: then `COc1cc(/C=c2\sc3nc(-c4cc(F)ccc4F)cn3c2=O)cc(Cl)c1O` [Example 56, 2-[1-(3-Chloro-4-hydroxy-5-methoxy-phenyl)-meth-(Z)-ylidene]-6-(2,5-difluoro-phenyl)-imidazo[2,1-b]thiazol-3-one], with 27 nM.
On to `COc1cc(/C=c2\sc3nc(-c4cccc(C#N)c4)cn3c2=O)cc(F)c1O` [Example 73, 3-{2-[1-(3-Fluoro-4-hydroxy-5-methoxy-phenyl)-meth-(Z)-ylidene]-3-oxo-2,3-dihydro-imidazo[2,1-b]thiazol-6-yl}-benzonitrile], for which, in assay [2], the IC50 amounted to 13 nM.
As for `COc1cc(/C=c2\sc3nc(-c4ccccc4OCCF)cn3c2=O)cc(Cl)c1O` [Example 83, 2-[1-(3-Chloro-4-hydroxy-5-methoxy-phenyl)-meth-(Z)-ylidene]-6-(2-(2-fluoroethoxyl)phenyl)-imidazo[2,1-b]thiazol-3-one], the IC50 in assay [1] came to 173 nM.
Turning to `COc1cc(/C=c2\sc3nc(-c4ccccc4OCCOCCOCCF)cn3c2=O)cc(Cl)c1O` [Example 96, 2-[1-(3-Chloro-4-hydroxy-5-methoxy-phenyl)-meth-(Z)-ylidene]-6-(2-{2-[2-(2-fluoro-ethoxy)-ethoxy]-ethoxy}-phenyl)-imidazo[2,1-b]thiazol-3-one], in assay [1], the IC50 amounted to 102 nM.
For the compound `COc1cc(/C=c2\sc3nc(-c4cccc(C(=O)N(C)CCF)c4)cn3c2=O)cc(Cl)c1O` [Example 120, 3-{2-[1-(3-Chloro-4-hydroxy-5-methoxy-phenyl)-meth-(Z)-ylidene]-3-oxo-2,3-dihydro-imidazo[2,1-b]thiazol-6-yl}-N-(2-fluoro-ethyl)-N-methyl-benzamide], in assay [1], the IC50 was determined as 49 nM.

Broadly, the IC50 is the concentration that gives 50% inhibition.
